Assay results published in PubChem BioAssay (NCI).
Converted amounts (≈) assume the structure as drawn.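 Protocol summary: plate cells (96-well), add compound at 5 concentrations, incubate 48 h, interpolate endpoints linearly. GI50 marks 50% less growth. TGI is the concentration that stops growth completely.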

Experiments:
Experiment in all cases: NCI anticancer screen, dose series, 48 h
MDA-N = tested on: MDA-N
T-47D breast = tested on: T-47D breast
KM20L2 colon = tested on: KM20L2 colon
DLD-1 colon = tested on: DLD-1 colon
M19-MEL melanoma = tested on: M19-MEL melanoma
LXFL 529 NSCLC = tested on: LXFL 529 NSCLC
RXF-631 renal = tested on: RXF-631 renal
HOP-18 NSCLC = tested on: HOP-18 NSCLC
XF 498 CNS = tested on: XF 498 CNS

Row | Structure (SMILES) | TGI (T-47D breast) | TGI (KM20L2 colon) [µM] | TGI (DLD-1 colon) [µM] | TGI (M19-MEL melanoma) [µM] | TGI (LXFL 529 NSCLC) [µM] | GI50 (T-47D breast) | also measured
1 | O=C1C2CC(Cl)C(SSC3CC4C(=O)N(SC(Cl)(Cl)C(Cl)Cl)C(=O)C4CC3Cl)CC2C(=O)N1SC(Cl)(Cl)C(Cl)Cl (stereo not given) | 7.18 µM |  |  |  |  |  | TGI (MDA-N): 6.71 µM
2 | CC(=O)Oc1c(C)n(CCCl)ccc1=O |  | > 100 | > 100 | > 100 | > 100 |  | TGI (RXF-631 renal): > 100 µM; TGI (HOP-18 NSCLC): > 100 µM; TGI (XF 498 CNS): > 100 µM
3 | NC(N)=NC(CC(=O)O)c1ccccc1 (stereo not given) | > 100 µM |  |  |  |  |  | TGI (MDA-N): > 100 µM
4 | COc1ccccc1C(=O)/C=C/c1cc2cccc(OC)c2[nH]c1=O | 12.8 µM |  |  |  |  | 0.626 µM | 
5 | CCCCCCCCCCCCc1ccc(C(=O)/C=C/C(=O)O)cc1 | 4.11 µM |  |  |  |  | 1.67 µM | 
6 | O=C1CC(=O)N(C2CCCCC2)C(=O)N1c1ccccc1S(=O)(=O)Oc1ccccc1 | > 100 µM |  |  |  |  |  | TGI (MDA-N): > 100 µM
7 | O=[N+]([O-])c1ccc(Sc2ncccn2)c([N+](=O)[O-])c1 | 15 µM |  |  |  |  | 3.01 µM | 
8 | CC1=C(C(=O)Nc2ccccc2)C(c2ccc3c(c2)OCO3)C(C(=O)Nc2ccccc2)=C(C)N1 |  |  | > 100 | > 100 | > 100 |  | TGI (RXF-631 renal): > 100 µM; TGI (HOP-18 NSCLC): > 100 µM; TGI (XF 498 CNS): 85.4 µM
9 | CCOC(=O)c1cccc(=O)c(C(=O)OCC)c1 |  | > 100 | > 100 | > 100 | > 100 |  | TGI (RXF-631 renal): > 100 µM; TGI (XF 498 CNS): > 100 µM
10 | ClC(=Nc1cccc2ccccc12)N(c1ccccc1)c1ccccc1 | > 100 µM |  |  |  |  |  | TGI (MDA-N): > 100 µM
11 | COc1cc[nH]c1/C=C1\C(=O)Nc2ccc(F)c(C#C[C@@H](O)[C@@H](N)[C@@H](C)O)c21 | 6.07 µM |  |  |  |  | 0.993 µM | 
12 | COc1cc2c(cc1OC)C(=O)C(Br)CC2 (stereo not given) | 5.06 µM |  |  |  |  | 2.25 µM | 
13 | O=C1C=C[C@]2(C[C@@H](c3cccc(C(F)(F)F)c3)O[C@@H](c3cccc(C(F)(F)F)c3)O2)O1 | 3.96 µM |  |  |  |  | 1.1 µM | 
14 | Cc1cc(C)nc(NS(=O)(=O)c2ccc(Nc3c4ccccc4nc4c(C(=O)Nc5ccc(S(N)(=O)=O)cc5)cccc34)cc2)n1 |  | > 100 | > 100 | > 100 | > 100 |  | TGI (HOP-18 NSCLC): > 100 µM; TGI (XF 498 CNS): > 100 µM
15 | O=S(=O)(O)CS(=O)(=O)OCCCl |  | > 100 | > 100 | > 100 | > 100 |  | TGI (RXF-631 renal): > 100 µM; TGI (HOP-18 NSCLC): > 100 µM; TGI (XF 498 CNS): > 100 µM
16 | O=S(=O)(c1ccc(NC(=S)N/N=C/c2ccccc2O)cc1)N1CCCCC1 | > 52.8 µM |  |  |  |  |  | 
17 | O=C(c1cccs1)c1c(C(F)(F)F)n([O-])c2ccc(C(F)(F)F)cc2[n+]1=O | 1.43 µM |  |  |  |  | 0.51 µM | 
18 | CC12OC(C(=O)C13CC3)C1C(=O)c3ccccc3C(=O)C12 (stereo not given) | > 100 µM |  |  |  |  | 24.4 µM | 
19 | COc1cc(-c2cc(C(=O)N3CCN(C(=O)c4ccccc4NCc4ccco4)CC3)nc3cc(-c4ccccc4)nn23)cc(OC)c1OC | > 100 µM |  |  |  |  | 2.94 µM | 
20 | Cn1cc(-c2ccc(=O)n(Cc3cccc(-c4ncc(OCCN5CCOCC5)cn4)c3)n2)cn1 | > 81.5 µM |  |  |  |  | 20.9 µM | 

Row | Structure (SMILES) | TGI (T-47D breast) | TGI (KM20L2 colon) [µM] | TGI (DLD-1 colon) [µM] | TGI (M19-MEL melanoma) [µM] | TGI (LXFL 529 NSCLC) [µM] | GI50 (T-47D breast) | also measured
21 | N#Cc1ccccc1NC(=O)C(=O)C(C(=O)c1ccccc1-c1ccccc1)C1OC(=O)c2ccccc21 (stereo not given) |  | 40.8 | 32.4 | 35.3 |  |  | TGI (XF 498 CNS): 33.6 µM
22 | CC(=O)c1ccc(Nc2cc(-n3ccnc3)nc3ccccc23)cc1 | > 100 µM |  |  |  |  | > 100 µM | 
23 | COc1ccc(/C=C2/CCCC/C2=N/O)cc1 |  | > 100 | > 100 | > 100 | > 100 |  | TGI (RXF-631 renal): > 100 µM; TGI (HOP-18 NSCLC): > 100 µM
24 | CC1=C(C(=O)Nc2ccc([N+](=O)[O-])cc2)C(c2ccco2)C(C(=O)Nc2ccc([N+](=O)[O-])cc2)=C(C)N1 |  | 60 | > 100 | 77.2 | > 100 |  | TGI (RXF-631 renal): > 100 µM; TGI (XF 498 CNS): > 100 µM
25 | CCOC(=O)Cc1c(Cc2[nH]c(C(=O)OCc3ccccc3)c(CC(=O)OCC)c2CC(=O)OCC)[nH]c(C(=O)OCc2ccccc2)c1CC(=O)OCC |  | > 100 |  | > 100 | > 100 |  | TGI (HOP-18 NSCLC): > 100 µM
26 | O=C1c2ccccc2-c2c1c1ccccc1c(=O)n2CCO | > 100 µM |  |  |  |  |  | TGI (MDA-N): > 100 µM
27 | CCCCCCC(=O)C/C(CCC(=O)N(Cc1ccccc1)Cc1ccccc1)=N\Nc1ccc([N+](=O)[O-])cc1[N+](=O)[O-] |  | > 100 | > 100 | > 100 | > 100 |  | TGI (HOP-18 NSCLC): > 100 µM
28 | O=[N+]([O-])c1ccc(N/N=C\c2cc(Cl)ccc2O)nc1 | > 100 µM |  |  |  |  | 2.86 µM | 
29 | Nc1ccn(C=C=CCO)c(=O)n1 | > 1000 µM |  |  |  |  | > 1000 µM | 
30 | C[C@H]1[C@H](OC(=O)CCC(=O)O)O[C@@H]2O[C@]3(C)CC[C@H]4[C@H](C)CC[C@@H]1[C@@]24OO3 | 22.7 µM |  |  |  |  | 0.4 µM | 
31 | O/N=C1\CCc2cc(-c3nc(C4CCNCC4)[nH]c3-c3ccncc3)ccc21 | > 25 µM |  |  |  |  | > 25 µM | 
32 | COc1cccc(NC(=O)c2sc3nc4c(cc3c2N)CCCC4)c1 | > 100 µM |  |  |  |  | 0.529 µM | 
33 | O=C1C2=C(c3ccccc31)C(c1ccc(Cl)cc1)N1C(=O)CCSC1=N2 (stereo not given) |  | > 100 | > 100 | > 100 | > 100 |  | TGI (RXF-631 renal): > 100 µM; TGI (XF 498 CNS): > 100 µM
34 | C/C(=N\NC(=S)Nc1ccc(C(=O)O)cc1)c1ccccn1 |  | 78.9 | > 100 | 49.7 | > 100 |  | TGI (HOP-18 NSCLC): 97.5 µM; TGI (XF 498 CNS): 63.7 µM
35 | CC1(C)CC(=O)C2=C(C1)NC(SSC1=C(C#N)C(c3ccccc3)C3=C(CC(C)(C)CC3=O)N1)=C(C#N)C2c1ccccc1 (stereo not given) | 62.4 µg/mL |  |  |  |  | 30.7 µg/mL | GI50 (MDA-N): 21 µg/mL (≈ 33.9 µM); TGI (MDA-N): 40.4 µg/mL
36 | O=C(Nc1ccncc1)C(=O)c1cn(S(=O)(=O)c2ccc(Br)cc2)c2ccccc12 | > 100 µM |  |  |  |  | 7.74 µM | 
37 | CC(=O)[CH-]C(=O)c1ccccc1.CC(=O)[CH-]C(=O)c1ccccc1.CCN(CC)CC[O-].CCN(CC)CC[O-].Cl.[Ti+4] |  | > 100 |  | 52.2 | 68.3 |  | GI50 (KM20L2 colon): 28.9 µM; GI50 (M19-MEL melanoma): 17.6 µM; GI50 (LXFL 529 NSCLC): 22.2 µM
38 | COC(=O)[C@]12CC[C@@H](C)[C@H](C)[C@@H]1C1=CC[C@@H]3[C@@]4(C)CC(=O)[C@H](O)[C@@]5(C)COC(=C45)C[C@@]3(C)[C@]1(C)CC2 | 38.8 µM |  |  |  |  | 18.4 µM | 
39 | CC1=COC(=O)c2ccccc2N1 |  | > 100 | > 100 | > 100 | > 100 |  | 
